The values below are quoted from earlier work in patent US20180235869A1, “METHODS AND COMPOSITIONS FOR SOFT ANTICHOLINERGIC ZWITTERIONS” (Bodor Laboratories, Inc., priority 2015, published 2018).

For this data set the following is noted: solid oral form.

Consider `C[N+]1(C)CCC(OC(=O)C(O)(c2ccccc2)C2CCCC2)C1` (stereo not drawn) [glycopyrrolate], for which the reducing drooling result (children) is on record as “effective in reducing drooling”. Moreover, the “dropped out of the study because of adverse effects” value (children, most with cerebral palsy) is “over 20%”. For the same compound, the “children affected by adverse events” value (most with cerebral palsy) was 69%.
